Measured values from patent US10259808B2 (Genentech, Inc., priority 2015, dated 2019).
pIC50: −log10 of the molar value.

Target: T1, RORc ligand binding domain (Homo sapiens, UniProt P51449)
T1 sequence (P51449 269-508 limits assumed): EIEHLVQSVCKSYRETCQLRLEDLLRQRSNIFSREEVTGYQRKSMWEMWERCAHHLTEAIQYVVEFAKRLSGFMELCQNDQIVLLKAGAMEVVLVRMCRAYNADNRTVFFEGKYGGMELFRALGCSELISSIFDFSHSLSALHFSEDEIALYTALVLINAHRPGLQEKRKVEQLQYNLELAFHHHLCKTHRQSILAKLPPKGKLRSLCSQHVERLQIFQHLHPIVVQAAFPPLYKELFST
Experiment: In vitro RORc ligand binding assay (25-[3H]hydroxycholesterol displacement)

## C[C@H]1CC[C@H](c2ccccc2)S(=O)(=O)N1Cc1cc(F)c([C@]2(c3nnc[nH]3)C[C@H](O)C2)cc1F [Example 116, 3-[2,5-difluoro-4-[[(3S,6R)-3-methyl-1,1-dioxo-6-phenyl-thiazinan-2-yl]methyl]phenyl]-3-(4H-1,2,4-triazol-3-yl)cyclobutanol]
  pIC50: 7.42

## C[C@H]1CC[C@H](c2ccccc2)S(=O)(=O)N1Cc1cc(F)c(C2(N3CC(=O)NC3=O)COC2)cc1F [Example 117, 1-[3-[2,5-difluoro-4-[[(3S,6R)-3-methyl-1,1-dioxo-6-phenyl-thiazinan-2-yl]methyl]phenyl]oxetan-3-yl]imidazolidine-2,4-dione]
  pIC50: 7.59

## C[C@H]1CC[C@H](c2ccccc2)S(=O)(=O)N1Cc1cc(F)c(C2(Nc3cnccn3)CCOCC2)cc1F [Example 118, N-[4-[2,5-difluoro-4-[[(3S,6R)-3-methyl-1,1-dioxo-6-phenyl-thiazinan-2-yl]methyl]phenyl]tetrahydropyran-4-yl]pyrazin-2-amine]
  pIC50: 8.28

## C[C@H]1CC[C@H](c2ccccc2)S(=O)(=O)N1Cc1cc(F)c(C2(c3n[nH]c(=O)o3)CC(=O)C2)cc1F [Example 119, 5-[1-[2,5-difluoro-4-[[(3S,6R)-3-methyl-1,1-dioxo-6-phenyl-thiazinan-2-yl]methyl]phenyl]-3-oxo-cyclobutyl]-3H-1,3,4-oxadiazol-2-one]
  pIC50: 8.74

## COC1(OC)CC(c2n[nH]c(=O)o2)(c2cc(F)c(CN3[C@@H](C)CC[C@H](c4ccccc4)S3(=O)=O)cc2F)C1 [Example 120, 5-[1-[2,5-difluoro-4-[[(3S,6R)-3-methyl-1,1-dioxo-6-phenyl-thiazinan-2-yl]methyl]phenyl]-3,3-dimethoxy-cyclobutyl]-3H-1,3,4-oxadiazol-2-one]
  pIC50: 8.24

## C[C@H]1CC[C@H](c2ccccc2)S(=O)(=O)N1Cc1cc(F)c(C2(c3n[nH]c(=O)o3)CC2)cc1F [Example 121, 5-[1-[2,5-difluoro-4-[[(3S,6R)-3-methyl-1,1-dioxo-6-phenyl-thiazinan-2-yl]methyl]phenyl]cyclopropyl]-3H-1,3,4-oxadiazol-2-one]
  pIC50: 7.71

## C[C@H]1CC[C@H](c2ccccc2)S(=O)(=O)N1Cc1cc(F)c(C2(OCc3nnc[nH]3)CC3(COC3)C2)cc1F [Example 122, (3S,6R)-2-[[2,5-difluoro-4-[6-(4H-1,2,4-triazol-3-ylmethoxy)-2-oxaspiro[3.3]heptan-6-yl]phenyl]methyl]-3-methyl-6-phenyl-thiazinane 1,1-dioxide]
  pIC50: 8.57

## C[C@H]1CC[C@H](c2ccccc2)S(=O)(=O)N1Cc1cc(F)c([C@]2(c3n[nH]c(=O)o3)C[C@H](O)C2)cc1F [Example 123, trans-5-[1-[2,5-difluoro-4-[[(3S,6R)-3-methyl-1,1-dioxo-6-phenyl-thiazinan-2-yl]methyl]phenyl]-3-hydroxy-cyclobutyl]-3H-1,3,4-oxadiazol-2-one]
  pIC50: 8.74

## C[C@H]1CC[C@H](c2ccccc2)S(=O)(=O)N1Cc1cc(F)c([C@]2(c3n[nH]c(=O)o3)C[C@@H](O)C2)cc1F [Example 124, cis-5-[1-[2,5-difluoro-4-[[(3S,6R)-3-methyl-1,1-dioxo-6-phenyl-thiazinan-2-yl]methyl]phenyl]-3-hydroxy-cyclobutyl]-3H-1,3,4-oxadiazol-2-one]
  pIC50: 8.68

## C[C@H]1CC[C@H](c2ccccc2)S(=O)(=O)N1Cc1cc(F)c(C2(NCC3COC(=O)N3)COC2)cc1F (stereo partly drawn) [Example 125, 4-[[[3-[2,5-difluoro-4-[[(3S,6R)-3-methyl-1,1-dioxo-6-phenyl-thiazinan-2-yl]methyl]phenyl]oxetan-3-yl]amino]methyl]oxazolidin-2-one]
  pIC50: 7.25

## C[C@H]1CC[C@H](c2ccccc2)S(=O)(=O)N1Cc1cc(F)c(C2(c3n[nH]c(=O)o3)CC(F)(F)C2)cc1F [Example 126, 5-[1-[2,5-difluoro-4-[[(3S,6R)-3-methyl-1,1-dioxo-6-phenyl-thiazinan-2-yl]methyl]phenyl]-3,3-difluoro-cyclobutyl]-3H-1,3,4-oxadiazol-2-one]
  pIC50: 8.57

## C[C@H]1CC[C@H](c2ccccc2)S(=O)(=O)N1Cc1cc(F)c([C@]2(c3n[nH]c(=O)o3)C[C@@](C)(O)C2)cc1F [Example 127, cis-5-[1-[2,5-difluoro-4-[[(3S,6R)-3-methyl-1,1-dioxo-6-phenyl-thiazinan-2-yl]methyl]phenyl]-3-hydroxy-3-methyl-cyclobutyl]-3H-1,3,4-oxadiazol-2-one]
  pIC50: 8.14

## C[C@H]1CC[C@H](c2ccccc2)S(=O)(=O)N1Cc1cc(F)c([C@]2(c3n[nH]c(=O)o3)C[C@](C)(O)C2)cc1F [Example 128, trans-5-[1-[2,5-difluoro-4-[[(3S,6R)-3-methyl-1,1-dioxo-6-phenyl-thiazinan-2-yl]methyl]phenyl]-3-hydroxy-3-methyl-cyclobutyl]-3H-1,3,4-oxadiazol-2-one]
  pIC50: 8.47

## C[C@H]1CC[C@H](c2ccccc2)S(=O)(=O)N1Cc1cc(F)c(C2(c3nnc(N)o3)CC(F)(F)C2)cc1F [Example 132, 5-[1-[2,5-difluoro-4-[[(3S,6R)-3-methyl-1,1-dioxo-6-phenyl-thiazinan-2-yl]methyl]phenyl]-3,3-difluoro-cyclobutyl]-1,3,4-oxadiazol-2-amine]
  pIC50: 7.89

## Cc1nn(C)cc1CNC1(c2cc(F)c(CN3[C@@H](C)CC[C@H](c4ccccc4)S3(=O)=O)cc2F)COC1 [Example 135, 3-[2,5-difluoro-4-[[(3S,6R)-3-methyl-1,1-dioxo-6-phenyl-thiazinan-2-yl]methyl]phenyl]-N-[(1,3-dimethylpyrazol-4-yl)methyl]oxetan-3-amine]
  pIC50: 6.70

## C[C@H]1CC[C@H](c2ccccc2)S(=O)(=O)N1Cc1cc(F)c(C2(NCC3CCOC3)COC2)cc1F (stereo partly drawn) [Example 136, 3-[2,5-difluoro-4-[[(3S,6R)-3-methyl-1,1-dioxo-6-phenyl-thiazinan-2-yl]methyl]phenyl]-N-(tetrahydrofuran-3-ylmethyl)oxetan-3-amine]
  pIC50: 7.62

## C[C@H]1CC[C@H](c2ccccc2)S(=O)(=O)N1Cc1cc(F)c(C2(NCc3ccnn3C)COC2)cc1F [Example 137, 3-[2,5-difluoro-4-[[(3S,6R)-3-methyl-1,1-dioxo-6-phenyl-thiazinan-2-yl]methyl]phenyl]-N-[(2-methylpyrazol-3-yl)methyl]oxetan-3-amine]
  pIC50: 7.05

## C[C@H]1CC[C@H](c2ccccc2)S(=O)(=O)N1Cc1cc(F)c(C2(NCc3cnn(C)c3)COC2)cc1F [Example 138, 3-[2,5-difluoro-4-[[(3S,6R)-3-methyl-1,1-dioxo-6-phenyl-thiazinan-2-yl]methyl]phenyl]-N-[(1-methylpyrazol-4-yl)methyl]oxetan-3-amine]
  pIC50: 7.16

## C[C@H]1CC[C@H](c2ccccc2)S(=O)(=O)N1Cc1cc(F)c([C@]2(c3n[nH]c(=O)o3)C[C@](C)(F)C2)cc1F [Example 139, trans 5-[1-[2,5-difluoro-4-[[(3S,6R)-3-methyl-1,1-dioxo-6-phenyl-thiazinan-2-yl]methyl]phenyl]-3-fluoro-3-methyl-cyclobutyl]-3H-1,3,4-oxadiazol-2-one]
  pIC50: 8.41

## C[C@H]1CC[C@H](c2ccccc2)S(=O)(=O)N1Cc1cc(F)c(C2(c3nn(C)c(=O)o3)CCOCC2)cc1F [Example 140, 5-[4-[2,5-difluoro-4-[[(3S,6R)-3-methyl-1,1-dioxo-6-phenyl-thiazinan-2-yl]methyl]phenyl]tetrahydropyran-4-yl]-3-methyl-1,3,4-oxadiazol-2-one]
  pIC50: 7.89

## C[C@H]1CC[C@H](c2ccccc2)S(=O)(=O)N1Cc1cc(F)c([C@]2(c3n[nH]c(=O)o3)C[C@](O)(C3CC3)C2)cc1F [Example 141, cis 5-[3-cyclopropyl-1-[2,5-difluoro-4-[[(3S,6R)-3-methyl-1,1-dioxo-6-phenyl-thiazinan-2-yl]methyl]phenyl]-3-hydroxy-cyclobutyl]-3H-1,3,4-oxadiazol-2-one]
  pIC50: 8.04

## C[C@H]1CC[C@H](c2ccccc2)S(=O)(=O)N1Cc1cc(F)c([C@]2(c3n[nH]c(=O)o3)C[C@@](O)(C3CC3)C2)cc1F [Example 142, trans 5-[3-cyclopropyl-1-[2,5-difluoro-4-[[(3S,6R)-3-methyl-1,1-dioxo-6-phenyl-thiazinan-2-yl]methyl]phenyl]-3-hydroxy-cyclobutyl]-3H-1,3,4-oxadiazol-2-one]
  pIC50: 8.37

## C[C@H]1CC[C@@H](c2ccccc2)S(=O)(=O)N1Cc1cc(F)c(C2(c3n[nH]c(=O)o3)CCC2)cc1F [Example 143, 5-[1-[2,5-difluoro-4-[[(3S,6S)-3-methyl-1,1-dioxo-6-phenyl-thiazinan-2-yl]methyl]phenyl]cyclobutyl]-3H-1,3,4-oxadiazol-2-one]
  pIC50: 6.82

## C[C@H]1CC[C@H](c2ccccc2)S(=O)(=O)N1Cc1cc(F)c(C2(c3n[nH]c(=O)o3)CCC2)cc1F [Example 144, 5-[1-[2,5-difluoro-4-[[(3S,6R)-3-methyl-1,1-dioxo-6-phenyl-thiazinan-2-yl]methyl]phenyl]cyclobutyl]-3H-1,3,4-oxadiazol-2-one]
  pIC50: 8.03

## C[C@H]1CC[C@H](c2ccccc2)S(=O)(=O)N1Cc1cc(F)c([C@]2(c3nnc[nH]3)C[C@](C)(O)C2)cc1F [Example 145, trans 3-[2,5-difluoro-4-[[(3S,6R)-3-methyl-1,1-dioxo-6-phenyl-thiazinan-2-yl]methyl]phenyl]-1-methyl-3-(4H-1,2,4-triazol-3-yl)cyclobutanol]
  pIC50: 8.15

## C[C@H]1CC[C@H](c2ccccc2)S(=O)(=O)N1Cc1cc(F)c([C@]2(c3nn(C)c(=O)o3)C[C@@H](O)C2)cc1F [Example 146, cis 5-[1-[2,5-difluoro-4-[[(3S,6R)-3-methyl-1,1-dioxo-6-phenyl-thiazinan-2-yl]methyl]phenyl]-3-hydroxy-cyclobutyl]-3-methyl-1,3,4-oxadiazol-2-one]
  pIC50: 7.75
